Patent US20230272012A1, “PEPTIDES AND METHODS OF USE” (REALTA LIFE SCIENCES, INC., priority 2020, published 2023)
Entries after “also recorded” stand apart in the source; their conditions may differ. Bridge positions count the residues as written; N and C are the ends. Square brackets hold non-standard residues; d marks the D form. Ends that are not written are not given here. Peptide text beside a SMILES is read from it. S5 = C=CCCC[C@](C)(N)C(=O)O; Sar = CNCC(=O)O

Tests used:
[1] = ABO incompatibility hemolytic assay of complement activity (CH50-type); type: cell-based, human; settings: peptide 0.8 mg/ml (~0.5 mM); read-out: decrease of ABO hemolysis compared to PA-I8Sar
Summary of the method: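 Type AB human erythrocytes (5.0×10^7) incubated with 15% (final) type O human serum and 0.5 mM peptide in GVBS^++, 1 h at 37 °C. Hemolysis read as supernatant absorbance at 412 nm, expressed as percent of the serum-plus-RBC positive control; means of three independent experiments ±SEM.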

[2] = type: in vivo, rat; settings: IV in Wistar rats, 20, 200, 400 mg/kg; 0.5-1440 minute
Description: (§1) Male Wistar rats with indwelling jugular catheters were administered PA-0117, -0127, -0130, and -0133 with groups of three animals receiving 20, 200 and 400 mg/kg of the compound as a single, bolus, IV infusion. A control group of rats received an infusion of saline IV. At various time points after infusion (0.5, 2, 5, 20, 60, 120, 240, 480, 1440 minute) an aliquot of blood was drawn and plasma isolated and frozen at −70° C. pending analysis. Animals were sacrificed after the terminal blood draw and a gross necropsy performed.
(§2) PA-0117 could not be analyzed as no functional complement activity was obtained from the plasma samples. […] PA-0117 was analyzed in a C1q target acquisition assay (C1q binding assay) as described in Example 1 (FIG. 9). […] PA-0127 and -0130 levels were determined by coating the plate with the plasma samples and directly detecting the peptides by rabbit antibody raised against PA-0020 (peptide sequence […]; SEQ ID NO: 57) (FIGS. 10B and 11B). […] PA-0133 could not be detected by the available antibodies.
PA-0117: The hemolysis assay results were not useable (few pre-bleeds had any activity, and only a few other random samples had any complement activity). The PK assay for PA-0117 was performed by sandwich ELISA (FIG. 9). PA-0127: The results of the hemolysis assay are discussed herein (see also FIG. 10A). […] PA-0130: The results of the hemolysis assay are discussed herein (see also FIG. 11A). […] PA-0133: The results of the hemolysis assay are discussed herein (FIG. 12).

[3] = test system: complement activity; experiment: Hemolytic assay of plasma after IV infusion into rats; type: in vivo, rat; settings: IV in Wistar rats; early time points at the highest dose
Description: as §1, §2

[4] = test system: human neutrophils; experiment: NETosis assay (free DNA, PicoGreen); type: cell-based; settings: peptide 2 mM; neutrophils stimulated with PMA and H2O2
Description: Free DNA as a marker for NET formation was measured by PicoGreen as previously described. Briefly, 2.0×10^6 human neutrophils in 96-well plates were stimulated with 12 nM PMA and 0.05% H2O2 in RPMI with or without the indicated peptide variants (2 mM) for 2.5 hr in a 37° C. humified incubator supplemented with 5% CO2, allowing NETosis to occur. Neutrophils in RPMI alone served as a negative control. Fifty units of […] (Fisher) were added to each well to allow for digestion of released extracellular DNA for 10 min at 37° C. The preparation was then aliquoted into an adjacent well and mixed 1:1 with prepared PICO green reagent (Fisher). The fluorescence was then quantified on a BioTek microplate reader at excitation 485 nm/emission 528 nm.

[5] = test system: purified human Pan T-cells; experiment: T-cell exhaustion protocol (Dynabeads re-stimulation); type: cell-based; settings: peptides 2 mg/ml at each stimulation; for IL-2 signal at stimulation 2: supernatant ELISA
Description: Purified human pan-T-cells were subject to stimulation with Dynabeads every 48 hours over the period of 8 days with cells also receiving PIC1 peptides (2 mg/ml) at each stimulation. Cells not receiving Dynabeads were run in parallel to assess background levels of Caspase 3/7 signal. At the eighth day, cells were harvested and the levels of Caspase 3/7 determined by ELISA.
Purified human pan-T-cells were subject to stimulation with Dynabeads every 48 hours over the period of 8 days with cells also receiving PIC1 peptides (2 mg/ml) at each stimulation. Cell supernatants were collected at each stimulation and levels of IL-2 and IFN-gamma assayed by ELISA.
T-cell exhaustion is a form of T-cell dysfunction that occurs in cancer. It is defined by poor effector function, reduction in cytokine release (e.g., IL-2, TNF-alpha, IFN-gamma), sustained expression of inhibitory receptors (e.g., PD-1, LAG-3, CD244, CD160) with the progressive loss of effector function due to overstimulation. Exhaustion prevents optimal control of tumor growth. Exhausted T cells are prevalent in the tumor microenvironment (TME) and can lead to T-cell apoptosis. T-cell exhaustion is reversible, and pharmaceutical inhibition of T-cell exhaustion has been considered a promising strategy by many cancer researchers. To ascertain if PIC1 peptides could reverse T-cell exhaustion and increase T cell viability and effector function, a T-cell exhaustion protocol was developed. To induce T-cell exhaustion, purified human Pan T-cells were stimulated with T-Activator CD3/CD28 Dynabeads and cells are washed and re-stimulated every 48 hours. PIC1 peptides were added to the cells after each stimulation with Dynabeads. After three to four stimulations cells were harvested for readouts which consisted of assessing T-cell apoptosis by measuring Caspase 3/7 levels and production of cytokines IL-2 and IFN-gamma which is indicative of T-cell functionality. […] To further evaluate if PIC1 peptides could restore T-cell functionality in cells that have undergone the exhaustion protocol, the inventors next assessed production of cytokines IL-2 and IFN-gamma. Supernatants from the cells after each stimulation were collected and the cytokines measured by ELISA. […] The lower level of IFN-gamma signal compared to IL-2 was consistently seen in this assay.

[6] = target: T1, PD-1/PD-L1 interaction (Homo sapiens, UniProt Q15116+Q9NZQ7); experiment: PD-1/PD-L1 Blockade Bioassay (Promega); type: cell-based; settings: increasing peptide concentrations
T1 construct: host or cells: PD-1 effector cells; PD-L1 aAPC/CHO-K1 cells
T1 sequence (Q15116 25-288): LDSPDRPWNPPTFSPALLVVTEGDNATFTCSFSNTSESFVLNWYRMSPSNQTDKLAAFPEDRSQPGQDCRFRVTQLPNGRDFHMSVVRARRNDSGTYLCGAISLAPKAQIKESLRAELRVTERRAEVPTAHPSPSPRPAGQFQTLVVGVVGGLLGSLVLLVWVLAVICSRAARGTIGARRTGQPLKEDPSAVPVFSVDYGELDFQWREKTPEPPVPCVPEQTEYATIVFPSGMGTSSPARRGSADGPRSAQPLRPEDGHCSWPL
T1 sequence (Q9NZQ7 19-290): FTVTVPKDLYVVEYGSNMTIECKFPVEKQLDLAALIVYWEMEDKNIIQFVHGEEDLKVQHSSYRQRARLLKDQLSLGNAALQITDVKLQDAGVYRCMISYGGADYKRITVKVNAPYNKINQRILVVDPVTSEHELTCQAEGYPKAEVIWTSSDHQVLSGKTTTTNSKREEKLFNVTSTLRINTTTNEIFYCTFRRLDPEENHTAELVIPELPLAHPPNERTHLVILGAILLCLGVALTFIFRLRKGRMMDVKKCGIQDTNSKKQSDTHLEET
Description: PD-1 effector cells were incubated with PD1-L1 aAPC cells in the absence or presence of increasing concentrations of anti-PD-1 antibody (positive control) and select PIC1 peptides. Luminescence was detected in luminometer plate reader.
To assess if PIC1 peptides could block PD-1 inhibitory activity in a cell-based assay, select peptides were screened in the PD-1/PD-L1 Blockade Bioassay (Promega). The PD-1/PD-L1 Blockade Bioassay is a biologically relevant MOA-based assay that can be used to measure the potency and stability of antibodies and other biologics designed to block the PD-1/PD-L1 interaction. This bioluminescent cell-based assay is used to measure the potency and stability of molecules targeting PD-1 and consists of two genetically engineered cell lines: aAPC/CHO-K1 Cells are CHO-K1 cells with an engineered cell surface protein designed to activate cognate TCRs in an antigen-independent manner. When the two cell types are co-cultured, the PD-1/PD-L1 interaction inhibits TCR signaling and NFAT-mediated luciferase activity. Addition of an inhibitory molecule that blocks either PD-1 or PD-L1 releases the inhibitory signal and results in TCR signaling and NFAT-mediated luciferase activity.

[7] = target: T2, CTLA-4 (Homo sapiens, UniProt P16410); experiment: CTLA-4 Blockade Bioassay (Promega); type: cell-based; parameters: host or cells: Jurkat T cells (CTLA-4 effector cells); aAPC/Raji cells; settings: increasing concentrations
T2 sequence (P16410 36-223): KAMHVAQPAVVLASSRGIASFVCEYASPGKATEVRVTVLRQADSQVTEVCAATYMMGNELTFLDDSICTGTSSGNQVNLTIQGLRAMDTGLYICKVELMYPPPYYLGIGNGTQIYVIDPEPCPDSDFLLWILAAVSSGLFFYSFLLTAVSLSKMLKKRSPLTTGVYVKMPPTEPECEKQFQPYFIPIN
Description: CTLA-4 effector cells were incubated with aAPC/Raji Cells in the absence or presence of increasing concentrations of anti-CTLA-4 antibody (positive control), RLS-0127*, RLS-0130, RLS-0156, RLS-0170 and RLS-0174. Luminescence was detected in luminometer plate reader.
To assess if PIC1 peptides could block CTLA-4 inhibitory activity in a cell-based assay, select peptides were screened in the CTLA-4 Blockade Bioassay (Promega). This bioluminescent cell-based assay is used to measure the potency and stability of molecules targeting CTLA-4 and consists of two genetically engineered cell lines: CTLA-4 effector cells: Jurkat T cells expressing human CTLA-4 and a luciferase reporter driven by a native promoter which responds to TCR/CD28 activation and aAPC/Raji Cells: Raji cells expressing an engineered cell surface protein designed to activate cognate TCRs in an antigen-independent manner and endogenously expressing CTLA-4 ligands CD80 and CD86. When the two cell types are co-cultured, CTLA-4 competes with CD28 for their shared ligands, CD80 and CD86 and thus inhibits CD28 pathway activation and promoter-mediated luminescence. Addition of a molecule that blocks the interaction of CTLA-4 with its ligands CD80 and CD86 results in promoter-mediated luminescence.

[8] = as described in U.S. Pat. No. 10,005,818; cited from earlier work
[9] = test system: human umbilical endothelial vein cells (HUVECs); experiment: LPS-induced (non-VEGF mediated) angiogenesis in HUVECs; type: cell-based; settings: peptides 10 mg/ml, LPS 10 ug/ml, overnight
Description: HUVEC cells were incubated with the indicated PIC1 peptides followed by LPS addition and plating onto extracellular matrix. After overnight incubation, evidence of angiogenesis was determined by fluorescence microscopy. Cells receiving LPS and not receiving LPS served as positive and negative controls for angiogenesis.
While VEGF-plays a major role in angiogenesis in cancer, other non-VEGF factors can induce angiogenesis to promote tumor growth. Currently there are no drugs on the market to inhibit non-VEGF mediated angiogenesis. To assess whether the PIC1 peptides could inhibit non-VEGF mediated angiogenesis, the inventors developed a model of angiogenesis using human umbilical endothelial vein cells (HUVECs) in which addition of lipopolysaccharide (LPS) induces angiogenesis. HUVECs were first incubated with Cell Trace Violet dye, followed by addition of PIC1 peptides (10 mg/ml) for 1 hour at 37° C. and then treated with 10 ug/ml of LPS and placement on an extracellular matrix to promote angiogenesis. Cells were incubated overnight at 37° C. in a humidified CO2 incubator. Cells were then visualized for tube formation indicative of angiogenesis by fluorescence microscopy.

Row | Compound | peptide level in plasma over time [2] | inhibition of complement activity in the hemolytic assay of rat plasma [3] | reduction of free DNA (marker of NETosis) [4] | IL-2 signal at stimulation 2 [5] | water solubility without PEGylation [8] | further results
1 | CC[C@H](C)[C@H](N)C(=O)N[C@@H](C)C(=O)N[C@@H](CC(C)C)C(=O)N[C@H](C(=O)N[C@@H](CC(C)C)C(=O)N[C@@H](CCC(=O)O)C(=O)N1CCC[C@H]1C(=O)N(C)CC(=O)N[C@H](CS)C(=O)N[C@@H](CS)C(=O)N[C@@H](CCC(N)=O)C(=O)N[C@@H](CCC(=O)O)C(=O)N[C@@H](CCCNC(=N)N)C(=O)N[C@@H](C)C(=O)N[C@@H](C)C(=O)O)[C@@H](C)CC [PA-0127, IALILEP(Sar)dCCQERAA] (HELM PEPTIDE1{I.A.L.I.L.E.P.[Sar].[dC].C.Q.E.R.A.A}$$$$V2.0) | increased binding was observed at early time points with diminished signal at later time points | inhibition of complement activity | did not reduce levels of free DNA; also recorded: did not show a reduction in free DNA |  |  | decrease in ABO hemolysis compared to reference peptide [1]: 20%
2 | CC[C@H](C)[C@H](N)C(=O)N[C@@H](C)C(=O)N[C@@H](CC(C)C)C(=O)N[C@H](C(=O)N[C@@H](CC(C)C)C(=O)N[C@@H](CCC(=O)O)C(=O)N1CCC[C@H]1C(=O)N(C)CC(=O)N[C@@H](CS)C(=O)N[C@@H](CS)C(=O)N[C@@H](CCC(N)=O)C(=O)N[C@H](CCC(=O)O)C(=O)N[C@@H](CCCNC(=N)N)C(=O)N[C@@H](C)C(=O)N[C@@H](C)C(=O)O)[C@@H](C)CC [PA-0130, IALILEP(Sar)CCQdERAA] (HELM PEPTIDE1{I.A.L.I.L.E.P.[Sar].C.C.Q.[dE].R.A.A}$$$$V2.0) | increased binding was observed at early time points with diminished signal at later time points | inhibition of complement activity | reduction in free DNA similar to that of the PA-I8Sar control; also recorded: ability to inhibit NET formation | showed an IL-2 signal at stimulation 2 |  | Caspase 3/7 levels ([5]; eighth day): very low to undetectable levels of Caspase 3/7; inhibition of PD-1/PD-L1 inhibitory signaling (luminescence) [6]: did not show PD-1/PD-L1 inhibitory activity; inhibitory activity in CTLA-4 blockade bioassay (luminescence) ([7]; listed as RLS-0130): showed inhibitory activity; also recorded: able to inhibit CTLA-4 mediated cell signaling
3 | IALILEP(Sar)CCQERAA (IALILEPXCCQERAA; sarcosine at position 8; MOD_RES (8)..(8) Sarcosine) [PA-0088, parent peptide, PIC1 with sarcosine at position 8, reference compound] |  |  | reduced the level of free DNA |  | water soluble without PEGylation | 
4 | IALILEP(Sar)S5CQES5AA (IALILEP[Sar][S5]CQE[S5]AA; staple 9-13) [PA-0118] |  |  |  | did not |  | inhibition of PD-1/PD-L1 inhibitory signaling (luminescence) ([6]; listed as RLS-0118): increase in luminescence indicative of inhibition of PD-1/PD-L1 inhibitory signaling; also recorded: able to inhibit PD-1/PD-L1 mediated cell signaling; inhibition of LPS-induced angiogenesis (tube formation) [9]: no signs of angiogenesis; inhibitory activity in CTLA-4 blockade bioassay (luminescence) [7]: did not
5 | IALILEPI(Sar)CQERAA (IALILEPIXCQERAA; sarcosine at position 9; MOD_RES (9)..(9) Sarcosine) [PA-0089] |  |  |  |  | water soluble without PEGylation | 
